Results: PMC11134608, “UBR5 forms ligand-dependent complexes on chromatin to regulate nuclear hormone receptor stability” (Molecular cell, 2023)
Residues, ends and D or L forms follow the SMILES beside them. *: point of attachment. Cbz = O=C(OCc1ccccc1)*

Assays:
3Ub~RARA/RXRA substrate = assay: In vitro ubiquitylation of pseudo-ubiquitylated RARA/RXRA; assay type: biochemical, human
Description: Input UBR5 variants -50 RARA/RXRA (µM)[NCOA1 peptide] uM
250 NCOA1 peptide (fluorescein-labeled probe): 5-FAM-[…]
200 LxxLLs UBR5 peptides (unlabeled): […]
Unlabelled peptide (µM)UBR5 peptide (µM)
0.0 +RARA/RXRA + retinoic acid
H A-1 A-2 Name Expressed UBR5 construct […]
round kDa WT LxxA LxxA WT 1-2799 kDa Input Backg WT LxxAA-1 LxxAA-2 ∆ UBR ∆ tandem ∆ UBA 250 […]
Figure S5. Interaction ofUBR5with NRs and LxxLL motifs,Related to Figure 3
(§1) A. RARAreporter degradation in HEK293cells withCRISPR-editedUBR5 deficientof itsHECTdomain inthepresence or absenceof ATRA (n=3 two-sided ttest).B. Ubiquitylation assayof a pseudo-primedRARA/RXRAsubstrate, generated as His-3Ub~RARA and His-3Ub~RXRA linearfusions in E.coli.Wild type UBR5 can rapidly branch and extend Ub chains on the substrate, however indicated mutants of the UBA domain severely hinder chain extension. C. Fluorescence polarization (FP) experiment showing forward titrationof RARA/RXRA intoa fluorescein-labelled NCOA1 peptide (residues 686-698). […]
Fluorescence polarization experiments depicting competitive reverse titrationwith indicated peptides against a pre-formed complex of RARA/RXRA with a fluorescein-labelled peptide of NCOA1 (residues 686-698) in the presence of ATRA. Titrations were performed in duplicate and binding constants determined after converting fluorescence polarization values tofraction bound of originalcomplex. […]

UBR5-RARA = assay: UBR5 pull-down competition with NCOA1; assay type: binding, human; conditions: NCOA at 0.5, 5 and 10× molar excess relative to UBR5, with ATRA
Description: Figure 2. UBR5 competes with nuclear coactivators for the conserved hydrophobic cleft of NRs (A) Schematic of RARA domain architecture; NTD, N-terminal domain; DBD, DNA-binding domain; LBD, ligand-binding domain. (B) Degradation of RARA reporters containing 4–5 surface-exposed alanine mutations per helix, relative to untreated (DMSO) (n = 3 two-sided t test). See Figure S2 for detailed amino acid substitutions. (C) Degradation of RARA reporters containing glutamate-substituted residues within the H3/H4 hydrophobic cleft. (n = 3 two-sided t test). […] FLAG-UBR5 (15 pmol) was pre-bound to a large excess of His-RARA in the presence of ATRA and excess RARA protein washed away. Increasing amounts of full-length NCOA1 protein were then added to outcompete the UBR5-RARA interaction. NCOA was titrated with a 0.5, 5, and 10× molar excess relative to UBR5. (F) Relative abundances in RARA-GFP IP-MS of NCOR1, NCOA1, and UBR5 normalized to RARA abundance following 0, 4, and 16 h of ATRA treatment.
12 μL of FLAG M2 slurry were equilibrated with binding buffer (25 mM HEPES pH 7.4, 125 mM NaCl, 0.05% TWEEN-20). The resin was pelleted and excess buffer removed. 60 μL of fresh binding buffer was re-added, followed by addition of 15 pmol (2.5 μL ofa6 μM solution) of purified FLAG-UBR5 protein and incubated on a rotating wheel at 4°C for 60–90 minutes. […]

[1] = test system: RARA/RXRA heterodimer (pre-formed complex with fluorescein-labelled NCOA1 peptide); assay: Fluorescence polarization, competitive reverse titration of unlabeled peptides; assay type: binding, human; conditions: with ATRA; 10 nM tracer, 0.5 μM RARA/RXRA, competitor 0–85 μM; 20 mM HEPES pH 7.4, 110 mM NaCl; room temperature; variable slope fit; duplicates
Experimental: Fluorescein-labelled NCOA1 peptide residues […] (Flc-[…]) was used as a fluorescent tracer as described previously.[71] Increasing amounts of RARA/RXRA heterodimer (0.1–26 μM final concentration) were mixed with tracer (10 nM final concentration) in a 384-well microplate (784076, Greiner) at room temperature. The interaction was measured in a final buffer containing 20 mM HEPES pH 7.4, 110 mM NaCl, 500 μM TCEP, 1% Glycerol, 0.1% (v/v) pluronic acid with or without 100 μM all-trans-retinoic acid. A PHERAstar FS microplate reader (BMG Labtech) equipped with a fluorescence polarization filter unit was used to determine changes in fluorescence polarization. The polarization units were converted to fraction bound, defined as (mPfree – mP) / (mPfree – mPbound), as described previously.[72] […]
as §1, with “C.” left out

RARA and UBR5 = assay: BRET assay of RARA and UBR5; assay type: cell-based, human; conditions: ± 9-cis RA, n = 3
Description: Bioluminescence resonance energy transfer (BRET) experiments were done using the NanoBRET PPI kit (Promega, N1821) according to manufacturer’s instructions.

[2] = test system: ATRA-induced gene expression in NB4 cells; assay: RNA sequencing of NB4 cells; assay type: cell-based, human; conditions: NB4, MG132 or DMSO, ATRA 0, 8, 24 h
Experimental: Cell lines were expanded, treated with ligand, and incubated at 37C. Cells were pelleted by centrifugation for 5 minutes, washed with cold PBS, and RNA was isolated by RNeasy kit (Qiagen) per manufacturer’s instructions. RNA was sent to Novogene for library preparation and sequencing, or prepared for sequencing (NEBNext, New England Biolabs) and sequenced on an Illumina NextSeq 550 sequencer.
Paired-end reads were aligned to the hg38.p13[81],[82] reference genome with the STAR[83] (v5.2.7b) aligner as part of the RSEM[99] command line tool. Gene transcript abundance was further quantified from aligned fragments using RSEM to generate a gene-by-sample matrix of expected counts. Differential expression was tested, as with the ChIP-seq data, using the DESeq[88],[93]2 and ashr[94] pipeline, this time calculating sample-specific scale factor offset using the method of median-ratio as implemented in the R package EBSeq[100] (v1.36.0). For plotting in heatmaps, genes were selected based on ChIP-seq peak annotation and subset.

UBR5^Δ83–347: UBR5 lacking the UBA insertion entirely
processivity in ubiquitylation assay (3Ub~RARA/RXRA substrate): severely hindered processivity in ubiquitylation assays

NCOA1: full-length NCOA1 protein
UBR5 binding to RARA in presence of excess NCOA1 (UBR5-RARA): impaired by an excess of full-length NCOA1

LQPYLRELLSAKD [UBR5 aa1098]
Kapp [1]: 41.4 ± 2.8 µM

CC1=C(/C=C/C(C)=C\C=C\C(C)=C\C(=O)O)C(C)(C)CCC1 [RA]
RARA/UBR5 BRET luminescence (RARA and UBR5): exhibited more luminescence than controls

UBR5^V196K: UBR5 with a substitution at the ubiquitin-binding interface
processivity in ubiquitylation assay (3Ub~RARA/RXRA substrate): severely hindered processivity in ubiquitylation assays

RLDLLYRLLTATN [UBR5 aa1251]
Kapp [1]: 3.1 ± 0.1 µM

CC(C)C[C@@H](C=O)NC(=O)[C@H](CC(C)C)NC(=O)[C@H](CC(C)C)NC(=O)OCc1ccccc1 [MG132] (Cbz-Leu-Leu-Leu-aldehyde)
effect of proteasomal inhibition (MG132) on ATRA-induced transcription [2]: strongly decreased ATRA-induced transcription
